Measured values published in patent publication EP4361157A1, “FUSED TETRACYCLIC COMPOUND, PREPARATION METHOD THEREFOR AND APPLICATION THEREOF IN MEDICINE” (Jiangsu Hengrui Pharmaceuticals Co., Ltd., priority 2021, dated 2022).

Experiments:
Assay type in all cases: cell-based
[1] = test system: AGS cells; assay: Inhibition of ERK phosphorylation of AGS cells (HTRF method); settings: Homo sapiens, AGS, phosphorylated ERK/total ERK ratio, 1 h incubation
Method: AGS cells (Nanjing Cobioer, CBP60476) were cultured in RPMI1640 (Hyclone, SH30809.01) complete medium containing 10% fetal bovine serum. On the first day of the experiment, the AGS cells were seeded into a 96-well plate with complete medium at a density of 40,000 cells/well to form 190 µL of cell suspension per well. The plate was incubated overnight in a cell incubator at 37 °C with 5% CO2.
The next day, 10 µL of serially-diluted test compound prepared from the complete medium was added to each well. The final concentrations of the compound were 9 concentration points obtained by 5-fold serial dilution from 10 µM. A blank control containing 0.5% DMSO was set. The well plate was incubated in a cell incubator at 37 °C with 5% CO2 for 1 h. After completion of incubation, the 96-well cell culture plate was taken out, the medium was removed by pipetting, 200 µL PBS (Shanghai BasalMedia Technologies Co., Ltd., B320) was added to each well, and the cells were washed once. PBS was removed by pipetting, 50 µL of lysis buffer (Cisbio, 64KL1FDF) containing a blocking solution (blocking reagent, Cisbio, 64KB1AAC) was added to each well, and the well plate was lysed on a shaker for 40 min at room temperature with shaking. After lysis, the lysate was pipetted and mixed well, 16 µL of lysate was transferred to two HTRF 96-well assay plates (Cisbio, 66PL96100) per well, and then 4 µL of premixed phosphorylated ERK1/2 antibody solution (Cisbio, 64AERPEG) or 4 µL of premixed total ERK1/2 antibody solution (Cisbio, 64NRKPEG) was added to these two plates. The microplate was sealed with a sealing membrane, centrifuged for 1 min in a microplate centrifuge, and incubated overnight at room temperature in the dark. On the third day, the fluorescence values at an excitation wavelength of 337 nm and at emission wavelengths of 665 nm and 620 nm were read using an ENVISION multifunctional microplate reader (PerkinElmer, ENVISION).
Table 1. Inhibitory activity data for ERK phosphorylation of AGS cells

[2] = test system: GP2d cells; assay: Inhibition of 3D proliferation of GP2d cells (CellTiter-Glo 3D); settings: 120 h incubation
Method: GP2d cells (Nanjing Cobioer, CBP60010) were cultured in a complete medium, namely DMEM/high glucose medium (Hyclone, SH30243.01) containing 10% fetal bovine serum (Corning, 35-076-CV). On the first day of the experiment, GP2d cells were seeded into a 96-well low adsorption plate (Corning, CLS7007-24EA) with complete medium at a density of 1,000 cells/well to form 90 µL of cell suspension per well. The plate was centrifuged at 2,000 rpm for 5 min at room temperature and then incubated overnight in a cell incubator at 37 °C with 5% CO2.
(§1) The next day, 10 µL of serially-diluted test compound prepared from the complete medium was added to each well. The final concentrations of the compound of GP2d cells were 9 concentration points obtained by 3-fold serial dilution from 1 µM, and the final concentrations of the compound of AGS cells were 9 concentration points obtained by 3-fold serial dilution from 10 µM. A blank control containing 0.5% DMSO was set. The well plate was incubated in a cell incubator at 37 °C with 5% CO2 for 120 h. On the seventh day, the 96-well cell culture plate was taken out, 50 µL CellTiter-Glo® 3D reagent (Promega, G9682) was added into each well, the plate was shaken at room temperature for 25 min, pipetted and mixed well, 50 µL of the solution was transferred into a white impermeable 96-well plate (PE, 6005290), and the luminescence signal values were read using a multifunctional microplate reader (PerkinElmer, ENVISION).
(§2) Table 2. Inhibitory activity data for 3D proliferation of AGS and GP2d cells

[3] = test system: AGS cells; assay: Inhibition of 3D proliferation of AGS cells (CellTiter-Glo 3D); settings: Homo sapiens, 120 h incubation
Method: AGS cells (Nanjing Cobioer, CBP60476) were cultured in a complete medium, namely RPMI1640 medium (Hyclone, SH30809.01) containing 10% fetal bovine serum (Corning, 35-076-CV). On the first day of the experiment, the AGS cells were seeded into a 96-well low adsorption plate (Corning, CLS7007-24EA) at a density of 1,000 cells/well using complete medium to form 90 µL of cell suspension per well. The plate was centrifuged at 2,000rpm for 5 min at room temperature and then incubated overnight in a cell incubator at 37 °C with 5% CO2.
as §1, §2

| SMILES | IC50 [1] [nM] | IC50 [2] [nM] | IC50 [3] [nM] |
| --- | --- | --- | --- |
| Oc1cc(-c2nc3c4c(nc(OC[C@@]56CCCN5C[C@H](F)C6)nc4c2F)N2C[C@H]4CC[C@H](N4)[C@H]2CO3)c2c(F)cccc2c1 [Example 3-p1, 5-Fluoro-4-((5aS,6S,9R)-1-fluoro-12-(((2R,7aS)-2-fluorotetrahydro-1H-pyrrolizin-7a(5 H)-yl)methoxy)-5a,6,7,8,9,10-hexahydro-5H-4-oxa-3,10a,11,13,14-pentaaza-6,9-methanonaphtho[1,8-ab]heptalen-2-yl)naphthalen-2-ol] | 17 | 13 | 95.3 |
| CCc1cccc2cc(O)cc(-c3nc4c5c(nc(OC[C@@]67CCCN6C[C@H](F)C7)nc5c3F)N3C[C@H]5CC[C@H](N5)[C@H]3CO4)c12 [Example 4-p1, 5-Ethyl-4-((5aS,6S,9R)-1-fluoro-12-(((2R,7aS)-2-fluorotetrahydro-1H-pyrrolizin-7a(5H )-yl)methoxy)-5a,6,7,8,9,10-hexahydro-5H-4-oxa-3,10a,11,13,14-pentaaza-6,9-methanonaphtho[1,8-ab]heptalen-2-yl)naphthalen-2-ol] | 2 | 0.8 | 14.5 |
| Oc1cc(Cl)c(C2CC2)c(-c2nc3c4c(nc(OC[C@@]56CCCN5C[C@H](F)C6)nc4c2F)N2C[C@H]4CC[C@H](N4)[C@H]2CO3)c1 [Example 6-p1, 3-Chloro-4-cyclopropyl-5-((5aS,6S,9R)-1-fluoro-12-(((2R,7aS)-2-fluorotetrahydro-1H-pyrrolizin-7a(5H)-yl)methoxy)-5a,6,7,8,9,10-hexahydro-5H-4-oxa-3,10a,11,13,14-pentaaza-6,9-methanonaphtho[1,8-ab]heptalen-2-yl)phenol] | 1.2 | 7.2 | 32.9 |
| Oc1cc(-c2nc3c4c(nc(OC[C@@]56CCCN5C[C@H](F)C6)nc4c2F)N2C[C@H]4CC[C@H](N4)[C@H]2CO3)c2c(F)c(F)ccc2c1 [Example 8-p1, 5,6-Difluoro-4-((5aS,6S,9R)-1-fluoro-12-(((2R,7aS)-2-fluorotetrahydro-1H-pyrrolizin-7 a(5H)-yl)methoxy)-5a,6,7,8,9,10-hexahydro-5H-4-oxa-3,10a,11,13,14-pentaaza-6,9-methanonaphtho[1,8-ab]heptalen-2-yl)naphthalen-2-ol] | 1.4 | 1.3 | 50.3 |
| CCc1c(F)ccc2cc(O)cc(-c3nc4c5c(nc(OC[C@@]67CCCN6C[C@H](F)C7)nc5c3F)N3C[C@H]5CC[C@H](N5)[C@H]3CO4)c12 [Example 9-p1, 5-Ethyl-6-fluoro-4-((5aS,6S,9R)-1-fluoro-12-(((2R,7aS)-2-fluorotetrahydro-1H-pyrrolizin-7a(5H)-yl)methoxy)-5a,6,7,8,9,10-hexahydro-5H-4-oxa-3,10a,11,13,14-pentaaza-6,9-methanonaphtho[1,8-ab]heptalen-2-yl)naphthalen-2-ol] | 0.4 | 0.9 | 5.8 |
| CCc1c(F)ccc2cc(O)cc(-c3nc4c5c(nc(OCC6(CN7CCC[C@H]7CO)CC6)nc5c3F)N3C[C@H]5CC[C@H](N5)[C@H]3CO4)c12 [Example 17, 5-Ethyl-6-fluoro-4-((5aS,6S,9R)-1-fluoro-12-((1-(((S)-2-(hydroxymethyl)pyrrolidin-1-yl)methyl)cyclopropyl)methoxy)-5a,6,7,8,9,10-hexahydro-5H-4-oxa-3,10a,11,13,14-pentaaza-6,9-methanonaphtho[1,8-ab]heptalen-2-yl)naphthalen-2-ol] | 2.8 | 4.9 | 52.2 |
